# From patent US20140205569A1, “METHODS AND COMPOSITIONS FOR PREVENTING AND TREATING OSTEOARTHRITIS” (priority 2010, published 2014)
# Assays:
# [1] = tested on: canine chondrocytes; experiment: Quantitative PCR expression of osteoarthritis-related genes in fatty-acid-enriched canine chondrocytes in alginate beads, stimulated with SMNCM; format: cell-based; conditions: fatty acid 50 μM, 3 weeks, 3rd week with 10% SMNCM; normalized to cyclophilin A; N=4
# Protocol: Canine cartilage was digested in a 37° C. shaking water bath using the following enzymes: trypsin (0.25%) for 25 minutes, hyaluronidase (150U/ml) for 1 hour, and collagenase (0.78%) overnight. Digested cartilage was filtered to obtain chondrocytes. Chondrocytes were expanded in monolayer culture with complete media. Composition of the complete media is Dulbecco's Modified Eagle Medium (DMEM)/F12 supplemented with 10% FBS, 1% P/S (100 U/mL penicillin and 100 μg/mL streptomycin) and 50 μg/ml ascorbic acid. Reaching subconfluence, chondrocytes were detached with 0.05% trypsin and cryopreserved. After cryopreservation, canine chondrocytes were expanded in a monolayer and, after reaching subconfluence, cells were trypsinized and subsequently immobilized in alginate beads. Cells suspended in complete media +3% alginate were dropped from a 18-gauge syringe into calcium chloride (120 mM) to form “beads.” Chondrocyte beads were cultured in complete media and media was changed every 2 or 3 days. At the end of the treatment, the chondrocyte beads were dissolved in sodium citrate (55 mM in 0.15 M NaCl). Suspensions were centrifuged at 2620 rpm for 5 minutes. Cells were washed with phosphate buffer and centrifuged again at 2620 rpm for 5 minutes. One mL RNAqueous™ lysis binding solution (Ambion, Austin, Tex.) was added to the isolated canine chondrocyte pellet, mixed thoroughly and stored at −80° C. until RNA isolation could be performed.
# Samples were vortexed and homogenized using a Quiashredder column (Qiagen, Valencia, Calif.) according to manufacturer's directions. The homogenized lysate was collected and 1 equal volume of 64% ethanol was added to it. This mixture was then applied to an RNAqueous™ filter cartridge, 700 uL at a time, and centrifuged for 1 minute at 10,000 rpm. The cartridge was washed using 700 uL wash solution #1 and 500 uL wash solution #2/3 with centrifugation at 10,000 rpm for 1 minute for each wash. The filter cartridge was dried by centrifugation (10,000 rpm) for 1 minute. RNA was eluted 3 times by centrifugation (as above) using 30 uL aliquots of 95-100° C. elution solution. The resulting RNA was DNAse-treated and quantitated in a Beckman DU 640B spectrophotometer (Beckman Coulter, Inc., Brea, Calif.) at 260 nm. Additionally, quantity and quality were assessed using a bioanalyzer (Agilent, Santa Clara, Calif.) according to manufacturer's directions.
# Stimulated monocyte neutrophil conditioned media (SMNCM) was made by isolating monocytes and neutrophils from canine whole blood using NycoPrep™ according to the manufacturer's directions. Monocytes and neutrophils were stimulated with lipopolysaccharide (20 ng/mL) for 72 hours. The resulting supernatant was used as SMNCM in cell culture experimentation (SMNCM made up 10% of media used during experimentation and is kept in frozen aliquots).
# Chondrocytes were enriched with a fatty acid at 50 μM just after they were enclosed in beads. FBS and ethanol were used as a vehicle. Once the enriched media were prepared, ethanol represented less than 0.1%. Cells were enriched with either arachidonic acid (AA) and dihomo-γ-linolenic acid for 3 weeks total in complete media. The 3rd week the enriched media also contained 10% stimulated monocyte neutrophil conditioned media (SMNCM). Chondrocyte beads were dissolved at the end of the experiment.
# All samples were run singularly against each primer/probe set to determine what standard curve should be used. Standard curves were generated using serial dilutions of liver RNA or RNA from experimental samples. […] Values were normalized to cyclophilin A levels as determined by quantitative PCR. Inductions were calculated from each of the lowest sample's normalized value. N=4 for all treatments.
# Values represent relative average induction values. […]
# [2] = tested on: Prostaglandin E2 (PGE2); experiment: PGE2 levels in chondrocyte media by enzyme immunoassay, per cell; format: cell-based, canine; conditions: for PGE2 levels from chondrocyte media, Avg / PGE2 levels from chondrocyte media: fatty acid 50 μM; for PGE2 levels from chondrocyte media, Avg: average of four chondrocyte batches
# Protocol: Canine cartilage was digested in a 37° C. shaking water bath using the following enzymes: trypsin (0.25%) for 25 minutes, hyaluronidase (150U/ml) for 1 hour, and collagenase (0.78%) overnight. Digested cartilage was filtered to obtain chondrocytes. Chondrocytes were expanded in monolayer culture with complete media. Composition of the complete media is Dulbecco's Modified Eagle Medium (DMEM)/F12 supplemented with 10% FBS, 1% P/S (100 U/mL penicillin and 100 μg/mL streptomycin) and 50 μg/ml ascorbic acid. Reaching subconfluence, chondrocytes were detached with 0.05% trypsin and cryopreserved. After cryopreservation, canine chondrocytes were expanded in a monolayer and, after reaching subconfluence, cells were trypsinized and subsequently immobilized in alginate beads. Cells suspended in complete media +3% alginate were dropped from a 18-gauge syringe into calcium chloride (120 mM) to form “beads.” Chondrocyte beads were cultured in complete media and media was changed every 2 or 3 days. At the end of the treatment, the chondrocyte beads were dissolved in sodium citrate (55 mM in 0.15 M NaCl). Suspensions were centrifuged at 2620 rpm for 5 minutes. Cells were washed with phosphate buffer and centrifuged again at 2620 rpm for 5 minutes. One mL RNAqueous™ lysis binding solution (Ambion, Austin, Tex.) was added to the isolated canine chondrocyte pellet, mixed thoroughly and stored at −80° C. until RNA isolation could be performed. Chondrocytes were enriched with a fatty acid at 50 μM just after they were enclosed in beads. FBS and ethanol were used as a vehicle. Once the enriched media were prepared, ethanol represented less than 0.1%. Cells were enriched with either arachidonic acid (AA) and dihomo-γ-linolenic acid for 3 weeks total in complete media. The 3rd week the enriched media also contained 10% stimulated monocyte neutrophil conditioned media (SMNCM). Chondrocyte beads were dissolved at the end of the experiment. Cell media was aliquoted in micro-centrifuge tubes and stored at −80° C. until analysis. Cells were enriched with either arachidonic acid (AA) and dihomo-γ-linolenic acid. Prostaglandin E2 (PGE2) levels were determined using Amersham Prostaglandin Prostaglandin E2 Biotrak Enzyme Immunoassay (EIA, GE Healthcare). Before performing the assay, media samples were thawed then diluted 50 to 250 times in assay buffer. Standards and samples were run in duplicate. The cell suspensions obtained after dissolving the alginate beads were centrifuged. After removing the supernatant, each cell pellet was resuspended in 1 ml of phosphate buffered saline. From each sample, 10 μL was added to the same volume of trypan blue stain before counting with a hemocytometer.
# [3] = tested on: NF-kB; experiment: NF-kB activation measured as SEAP release in HT-29 clone 34 cells with or without rhTNF-alpha; format: cell-based; conditions: general statement of the discovery
# Protocol: HT-29 clone 34 cells were seeded at 2.0×10^5 cells/well in DMEM with 5% FCS and 1% PS. Cells were incubated for 24 hours at 37° C. at 5% CO2 with or without rhTNF-alpha with dihomo-gamma-linolenic acid (0.1, 0.3, 0.5, 0.7 or 1 mg/ml) in ethanol as a vehicle. NF-kB activity was measured as SEAP release using a Phospha-Light™ System (Applied Biosystems, Bedford, Mass.) per manufacturer's directions.
SMILES,Quantitative PCR expression value 2252B (relative average induction) [1],Quantitative PCR expression value ADAMTS-4 (relative average induction) [1],Quantitative PCR expression value ADAMTS-5 (relative average induction) [1],Quantitative PCR expression value CYTL-1 (relative average induction) [1],Quantitative PCR expression value GRIA-4 (relative average induction) [1],Quantitative PCR expression value IGF-2 (relative average induction) [1],Quantitative PCR expression value IL-1 (relative average induction) [1],Quantitative PCR expression value IL-6 (relative average induction) [1],Quantitative PCR expression value IL-8 (relative average induction) [1],Quantitative PCR expression value MMP-2 (relative average induction) [1],Quantitative PCR expression value MMP-9 (relative average induction) [1],Quantitative PCR expression value MMP-13 (relative average induction) [1],Quantitative PCR expression value PC-2A (relative average induction) [1],Quantitative PCR expression value SOX-9 (relative average induction) [1],Quantitative PCR expression value TIMP-1 (relative average induction) [1],Quantitative PCR expression value TIMP-2 (relative average induction) [1],Quantitative PCR expression value TNF-alpha (relative average induction) [1],"PGE2 levels from chondrocyte media, Avg [2]",PGE2 levels from chondrocyte media ([2]; chondrocyte batch 1084),PGE2 levels from chondrocyte media ([2]; chondrocyte batch 31010),further results
"CCCCC/C=C\C/C=C\C/C=C\C/C=C\CCCC(=O)O [AA, arachidonic acid, reference compound]",4.3,1.4,3.0,18.1,5.0,14.7,4.1,4.8,3.0,1.8,9.5,2.7,4.5,1.9,3.5,1.6,26.4,1414 fg/ml/cell,957 fg/ml/cell,473 fg/ml/cell,PGE2 levels from chondrocyte media ([2]; chondrocyte batch 31510): 274 fg/ml/cell; PGE2 levels from chondrocyte media ([2]; chondrocyte batch 41210): 3950 fg/ml/cell
"CCCCC/C=C\C/C=C\C/C=C\CCCCCCC(=O)O [DGLA, dihomo-γ-linolenic acid]",4.7,1.6,2.8,18.0,4.2,15.9,2.4,3.9,3.1,1.6,22.9,2.1,5.2,1.9,3.7,1.6,18.8,598 fg/ml/cell,800 fg/ml/cell,331 fg/ml/cell,"Effect on NF-kB activation (in words) [3]: inhibit NF-kB activation; PGE2 % Decrease ([2]; 50 μM DGLA versus 50 μM AA, chondrocyte batch 1084): 16%; PGE2 % Decrease ([2]; 50 μM DGLA versus 50 μM AA, chondrocyte batch 31010): 30%; PGE2 % Decrease ([2]; 50 μM DGLA versus 50 μM AA, chondrocyte batch 31510): 34%; PGE2 % Decrease ([2]; 50 μM DGLA versus 50 μM AA, chondrocyte batch 41210): 73%; PGE2 % Decrease, Avg ([2]; 50 μM DGLA versus 50 μM AA, from the batch averages): 58%; PGE2 levels from chondrocyte media ([2]; chondrocyte batch 31510): 182 fg/ml/cell; PGE2 levels from chondrocyte media ([2]; chondrocyte batch 41210): 1080 fg/ml/cell; Effect on inflammatory mediators (in words) ([2]; general statement of the discovery): reduce inflammatory mediators"
